Experimental data published in patent EP4650362A1, “NEUROPROTECTIVE PSD-95 POLYPEPTIDE INHIBITOR AND USE THEREOF” (Beijing Tuo Jie Biopharmaceutical Co. Ltd., priority 2023, dated 2024).
Non-standard residues stand in square brackets, D forms with d. Residues, ends and D or L forms follow the SMILES beside them. hArg = N=C(N)NCCCC[C@H](N)C(=O)O; Tle = CC(C)(C)[C@H](N)C(=O)O; Dab = NCC[C@H](N)C(=O)O; Aib = CC(C)(N)C(=O)O

Legend:
[1] = molecular target: T1, human PSD95-PDZ2 (Homo sapiens, UniProt P78352); assay: binding ELISA with Biotin-PDZ2; conditions: for EC50: plate coated with 2 µM test compound, Biotin-PDZ2 titrated, read-out: EC50 (PDZ2); for Specificity for PDZ2 (PDZ3/PDZ2): ratio PDZ3/PDZ2
T1 construct: PDZ2 (155-249, the Flag-His-Avitag-TEVsite tag is italicized); made in house; host or cells: E. coli BL21-DE3 (PET vector)
Source text: (§1) The three PDZ domains in the PSD95 protein are structurally similar. Binding to the PDZ1 and PDZ2 domains can effectively block PSD95-mediated neuroexcitotoxicity. However, the biological function of binding to the PDZ3 domain is unclear. Therefore, to avoid potential safety concerns, this test example assessed the selectivity of polypeptide compounds for the PDZ2 and PDZ3 domains, aiming to identify polypeptide compounds that specifically bind to the PDZ2 domain. Site-specifically biotinylated Biotin-PDZ2 and Biotin-PDZ3 proteins were used for binding ELISA assays. […] After the blocking was complete, the blocking solution was discarded, and the plate was washed three times with PBST buffer. […] After the incubation was complete, the reaction solutions in the microplate were discarded, and the plate was washed three times with PBST. 100 µL of HRP-SA secondary antibody (diluted at 1:2000) was added to each well, and the plate was incubated at 37 °C for 1 h. After the plate was washed three times with PBST, 100 µL of TMB chromogenic substrate was added. […] The absorbance at 450 nm was measured using a SpectraMax M5 microplate reader, and the binding EC50 values of the test compounds to Biotin-PDZ2 or Biotin-PDZ3 were calculated using GraphPad Prism 9. […] The abilities of polypeptide compounds to bind to human PSD95-PDZ2 and human PSD95-PDZ3
Target sequence in this assay (P78352 155-249): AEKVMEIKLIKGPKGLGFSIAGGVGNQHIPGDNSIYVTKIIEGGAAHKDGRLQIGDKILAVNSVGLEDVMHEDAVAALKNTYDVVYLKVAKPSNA

[2] = molecular target: T2, human PSD95-PDZ3 (Homo sapiens, UniProt P78352); assay: binding ELISA with Biotin-PDZ3; conditions: plate coated with 2 µM test compound, Biotin-PDZ3 titrated; read-out: EC50 (PDZ3)
T2 construct: PDZ3 (309-401, Flag-His-Avitag-TEVsite tag); made in house
Source text: as §1, with “domain. The expression and purification of PSD95-PDZ3 protein were carried out with reference to the steps in 3.1.2. The amino acid sequence of PDZ3 protein: […]” for “domain.”, “μL” for “µL”

[3] = molecular target: T1, human PSD95-PDZ2; assay: competitive ELISA, affinity for human PSD95-PDZ2; assay type: binding; conditions: for IC50: competitive ELISA against 0.3 µM Biotin-NA-1, error of this test within three times, read-out: IC50; for rIC50: ratio of the affinity of the polypeptide compound to the affinity of NA-1
Source text: The objective of this test example was to determine the affinities of polypeptide compounds for human PSD95-PDZ2 using competitive ELISAs.
The amino acid sequence of PDZ2 protein was designed using human PSD95 (Uniprot Entry: P78352) as a template for PDZ: PDZ2 (155-249, the Flag-His-Avitag-TEVsite tag is italicized and was subsequently used for purification and biotinylation): […]
[…] (SEQ ID NO. 62). The PDZ2 gene was constructed onto a PET expression vector, and induced expression was performed using BL21-DE3 E. coli cells under conditions of 37 °C and 1 mM IPTG 4 h. Then centrifugation was performed at 10,000 g at 4 °C for 10 min, and the cell pellets were collected, resuspended in 1× PBS solution, and then lysed using a homogenizer. The lysate was centrifuged at high speed, and the supernatant was collected and filtered through a 0.45 µm membrane. A Ni-Sepharose affinity column was equilibrated with 5 column volumes of a 20 mM phosphate buffer (pH 8.0). The sample was centrifuged at high speed to remove impurities and loaded onto the column for binding. The column was rinsed with the 20 mM phosphate buffer until the A280 reading dropped to the baseline. Gradient elution was then performed with the 20 mM phosphate buffer and 0-500 mM imidazole. A protein was collected, and whether it was the target protein was determined. The purified sample described above was buffer-exchanged into 1× PBS solution, and the resulting solution was concentrated to a volume of 2 mL and further purified using a Superdex200 gel chromatography column (GE) equilibrated with 1× PBS. The target peak was collected and aliquoted for later use.
PSD95-PDZ2 (the tag was removed by TEV enzyme) was diluted with 1× PBS buffer to 1 µg/mL, added to a 96-well microplate (Corning, 9018, 25/box 96-well clear flat bottom plate) at 100 µL/well, and left to stand overnight at 4 °C for 16-20 h. After the liquid was discarded, the plate was washed three times with PBST (pH 7.4, 0.05% Tween-20) buffer, and a 4% BSA blocking solution diluted with PBST buffer was then added (300 µL/well). The plate was blocked by incubation in an incubator at 37 °C for 1 h. After the blocking was complete, the blocking solution was discarded, and the plate was washed three times with PBST buffer. Biotin-NA-1, at a constant concentration of 0.3 µM, and the test compounds, having a starting concentration of 100 µM and serially diluted ten-fold with PBS buffer to seven concentrations (100, 10, 1, 0.1, 0.01, 0.001, 0.0001, and 0 µM), were then added, and the plate was incubated in an incubator at 37 °C for 1 h. After the incubation was complete, the reaction solutions in the microplate were discarded, and the plate was washed three times with PBST. 100 µL of HRP-SA secondary antibody (diluted at 1:2000) was added to each well, and the plate was incubated at 37 °C for 1 h. After the plate was washed three times with PBST, 100 µL of TMB chromogenic substrate was added. The plate was incubated at room temperature for 1-3 min, and 100 µL of 1 M sulfuric acid was added to stop the reaction.
The absorbance at 450 nm was measured using a SpectraMax M5 microplate reader, and non-linear fitting was performed using GraphPad Prism 9 to calculate the binding IC50 values of the test compounds to PSD95-PDZ2 protein.

T2 sequence (P78352 309-401): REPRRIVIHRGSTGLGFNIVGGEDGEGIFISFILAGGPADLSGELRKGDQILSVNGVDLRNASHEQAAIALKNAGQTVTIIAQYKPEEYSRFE

| SMILES | EC50 [1] | EC50 [2] | IC50 [3] | Specificity for PDZ2 (PDZ3/PDZ2) [1] | rIC50 [3] | selectivity for the PSD95-PDZ2 domain ([1]; PDZ2 versus PDZ3, conclusion in words) |
| --- | --- | --- | --- | --- | --- | --- |
| CC[C@H](C)[C@H](NC(=O)[C@H](CCCCNC(=N)N)NC(=O)[C@H](CCCCNC(=N)N)NC(=O)[C@@H](NC(=O)[C@@H](CCCNC(=N)N)NC(=O)[C@@H](CCCNC(=N)N)NC(=O)[C@@H](CCCNC(=N)N)NC(=O)[C@@H](CCC(N)=O)NC(=O)[C@@H](CCCNC(=N)N)NC(=O)[C@@H](CCCNC(=N)N)NC(=O)[C@@H](CCCCN)NC(=O)[C@@H](CCCCN)NC(=O)[C@@H](CCCNC(=N)N)NC(=O)CNC(=O)[C@H](N)Cc1ccc(O)cc1)[C@@H](C)O)C(=O)N[C@H](C(=O)N[C@@H](CC(=O)O)C(=O)N[C@H](C(=O)O)C(C)C)[C@@H](C)O [Polypeptide compound 17, y-G-r-k-k-r-r-q-r-r-r-T-homoArg-homoArg-I-T-D-V] (H-[dY]G[dR][dK][dK][dR][dR][dQ][dR][dR][dR]T[hArg][hArg]ITDV-OH) | 0.269 µM | 38.3 µM | 0.605 µM | – | – | – |
| CC(C)[C@H](NC(=O)[C@H](CC(=O)O)NC(=O)[C@@H](NC(=O)[C@@H](NC(=O)[C@@H](NC(=O)[C@H](CCCCNC(=N)N)NC(=O)[C@H](CCN)NC(=O)C(C)(C)NC(=O)CNC(=O)[C@@H](CCCNC(=N)N)NC(=O)[C@@H](CCCNC(=N)N)NC(=O)[C@@H](CCCNC(=N)N)NC(=O)[C@@H](CCC(N)=O)NC(=O)[C@@H](CCCNC(=N)N)NC(=O)[C@@H](CCCNC(=N)N)NC(=O)[C@@H](CCCCN)NC(=O)[C@@H](CCCCN)NC(=O)[C@@H](CCCNC(=N)N)NC(=O)CNC(=O)[C@H](N)Cc1ccc(O)cc1)C(C)(C)C)C(C)(C)C)[C@@H](C)O)C(=O)O [Polypeptide compound 18, y-G-r-k-k-r-r-q-r-r-r-G-Aib-Dab-homoArg-Tle-Tle-T-D-V] (H-[dY]G[dR][dK][dK][dR][dR][dQ][dR][dR][dR]G[Aib][Dab][hArg][Tle][Tle]TDV-OH) | 0.015 µM | 1.19 µM | 0.152 µM | 79 | 0.17 | – |
| CC(C)[C@H](NC(=O)[C@H](CC(=O)O)NC(=O)[C@@H](NC(=O)[C@@H](NC(=O)[C@@H](NC(=O)COCCOCCNC(=O)[C@@H](CCCNC(=N)N)NC(=O)[C@@H](CCCNC(=N)N)NC(=O)[C@@H](CCCNC(=N)N)NC(=O)[C@@H](CCC(N)=O)NC(=O)[C@@H](CCCNC(=N)N)NC(=O)[C@@H](CCCNC(=N)N)NC(=O)[C@@H](CCCCN)NC(=O)[C@@H](CCCCN)NC(=O)[C@@H](CCCNC(=N)N)NC(=O)CNC(=O)[C@H](N)Cc1ccc(O)cc1)C(C)(C)C)C(C)(C)C)[C@@H](C)O)C(=O)O [Polypeptide compound 15, y-G-r-k-k-r-r-q-r-r-r-AEEA-Tle-Tle-T-D-V] | 0.088 µM | > 1000 µM | 2.62 µM | >10000 | 3.00 | comparable to that of the positive drugs NA-1 and NoNO42 |
| CC(C)[C@H](NC(=O)[C@H](CC(=O)O)NC(=O)[C@@H](NC(=O)[C@@H](NC(=O)[C@@H](NC(=O)[C@@H](NC(=O)CNC(=O)[C@@H](CCCNC(=N)N)NC(=O)[C@@H](CCCNC(=N)N)NC(=O)[C@@H](CCCNC(=N)N)NC(=O)[C@@H](CCC(N)=O)NC(=O)[C@@H](CCCNC(=N)N)NC(=O)[C@@H](CCCNC(=N)N)NC(=O)[C@@H](CCCCN)NC(=O)[C@@H](CCCCN)NC(=O)[C@@H](CCCNC(=N)N)NC(=O)CNC(=O)[C@H](N)Cc1ccc(O)cc1)[C@@H](C)O)C(C)(C)C)C(C)(C)C)[C@@H](C)O)C(=O)O [Polypeptide compound 20, y-G-r-k-k-r-r-q-r-r-r-G-T-Tle-Tle-T-D-V] (H-[dY]G[dR][dK][dK][dR][dR][dQ][dR][dR][dR]GT[Tle][Tle]TDV-OH) | 0.015 µM | 3.23 µM | 0.763 µM | 215 | 0.84 | – |
| CCCC[C@H](NC(=O)[C@@H](CCCNC(=N)N)NC(=O)[C@@H](CCCNC(=N)N)NC(=O)[C@@H](CCCNC(=N)N)NC(=O)[C@@H](CCC(N)=O)NC(=O)[C@@H](CCCNC(=N)N)NC(=O)[C@@H](CCCNC(=N)N)NC(=O)[C@@H](CCCCN)NC(=O)[C@@H](CCCCN)NC(=O)[C@@H](CCCNC(=N)N)NC(=O)CNC(=O)[C@H](N)Cc1ccc(O)cc1)C(=O)N[C@H](C(=O)N[C@H](C(=O)N[C@H](C(=O)N[C@H](C(=O)N[C@H](C(=O)N[C@@H](CC(=O)O)C(=O)N[C@H](C(=O)O)C(C)C)[C@@H](C)O)C(C)(C)C)C(C)(C)C)[C@@H](C)O)[C@@H](C)O [Polypeptide compound 16, y-G-r-k-k-r-r-q-r-r-r-Nle-T-T-Tle-Tle-T-D-V] | 0.081 µM | > 1000 µM | 1.52 µM | – | – | – |
